# Test results reported in patent publication US9198432B2, “1,2,4-triazolyl-substituted ketoenols” (BAYER INTELLECTUAL PROPERTY GMBH, priority 2011, dated 2015).
# Assays:
# Assay type in all cases: in vivo
# [1] = system: greenhouse red spider mite (Tetranychus urticae); test: Tetranychus spray test, OP-resistant (TETRUR); conditions: after 6 days, bean leaf discs
# Experimental: Tetranychus Spray Test, OP-resistant (TETRUR)
# (§1) Solvents: 78.0 parts by weight of acetone • • 1.5 parts by weight of dimethylformamide
# Emulsifer: 0.5 part by weight of alkylaryl polyglycol ether
# (§2) To produce a suitable preparation of active compound, 1 part by weight of active compound is mixed with the stated amounts of solvent and emulsifier, and the concentrate is diluted with emulsifier-containing water to the desired concentration.
# Discs of bean leaves (Phaseolus vulgaris) which are infested by all stages of the greenhouse red spider mite (Tetranychus urticae) are sprayed with an active compound preparation of the desired concentration.
# After 6 days, the effect in % is determined 100% here means that all of the spider mites have been killed; 0% means that none of the spider mites have been killed.
# [2] = system: green peach aphid (Myzus persicae); test: Myzus persicae spray test (MYZUPE); conditions: 500 g/ha, after 6 days, Chinese cabbage disks
# Experimental: Myzus persicae Spray Test (MYZUPE) Solvents: 78 parts by weight of acetone • • 1.5 parts by weight of dimethylformamide Emulsifier: 0.5 part by weight of alkylaryl polyglycol ether To produce a suitable preparation of active compound, 1 part by weight of active compound is mixed with the stated amounts of solvent and emulsifier, and the concentrate is diluted with emulsifier-containing water to the desired concentration. Disks of Chinese cabbage (Brassica pekinensis) infested by all stages of the green peach aphid (Myzus persicae) are sprayed with an active compound formulation of the desired concentration. After 6 days, the effect in % is determined 100% here means that all of the aphids have been killed; 0% means that none of the aphids have been killed.
# [3] = system: larvae of the mustard beetle (Phaedon cochleariae); test: Phaedon cochleariae spray test (PHAECO); conditions: 500 g/ha, after 7 days, Chinese cabbage leaf disks
# Experimental: Phaedon Cochleariae Spray Test (PHAECO)
# as §1
# Emulsifier: 0.5 part by weight of alkylaryl polyglycol ether
# as §2
# After 7 days, the effect in % is determined 100% means that all beetle larvae have been killed; 0% means that none of the beetle larvae have been killed.
# [4] = system: Lucilia cuprina larvae; test: Lucilia cuprina (48 h) test; conditions: 100 ppm, after 48 hours, treated horse meat
# Experimental: Lucilia Cuprina (48 h) Solvent: dimethyl sulfoxide To produce a suitable preparation of active compound, 10 mg of active compound are mixed with 0.5 ml of dimethyl sulfoxide, and the concentrate is diluted with water to the desired concentration. Vessels containing horse meat treated with the active compound preparation of the desired concentration are populated with about 20 Lucilia cuprina larvae. After 48 hours, the kill in % is determined 100% means that all larvae have been killed; 0% means that no larvae have been killed.
Compound,"efficacy (effect in %, spider mites killed) ([1]; 500 g/ha) [%]","efficacy (effect in %, aphids killed) [2] [%]","efficacy (effect in %, spider mites killed) ([1]; 100 g/ha) [%]",further results
CCn1nc(-c2ccc(Cl)cc2)nc1C1=C(O)C(C)(C)NC1=O [Example I-1-a1-4],80,80,,
CCn1nc(-c2ccc(Cl)cc2)nc1C1=C(O)C2CCCN2C1=O (centres unmarked) [Example I-1-a4-4],100,,,
C=CCOC1CCC2(CC1)NC(=O)C(c1nc(-c3ccc(Cl)cc3)nn1C)=C2O (centres unmarked) [Example I-1-a11-3],,90,90,
CC1CCC2(CC1)NC(=O)C(c1nc(-c3ccc(Cl)cc3)nn1C)=C2O (centres unmarked) [Example I-1-a7-3],90,90,,
COC1CCC2(CC1)NC(=O)C(c1nc(-c3ccc(Cl)cc3)nn1C)=C2O (centres unmarked) [Example I-1-a2-3],100,100,,
CCCOC1CCC2(CC1)NC(=O)C(c1nc(-c3ccc(Cl)cc3)nn1C)=C2O (centres unmarked) [Example I-1-a6-3],90,90,,"efficacy (effect in %, beetle larvae killed) [3]: 100%"
CC(C)n1nc(-c2ccc(Cl)cc2)nc1C1=C(O)C(C)(C)NC1=O [Example I-1-a1-9],,,90,
CC1COC2(CCC3(CC2)NC(=O)C(c2nc(-c4ccc(Cl)cc4)nn2C)=C3O)OC1 (centres unmarked) [Example I-1-a13-3],,90,,
CCON1CCC2(CC1)NC(=O)C(c1nc(-c3ccc(Cl)cc3)nn1C)=C2O [Example I-1-a9-3],,90,90,
Cn1nc(-c2ccccc2)nc1C1=C(O)C2(CCOCC2)NC1=O [Example I-1-a3-5],,100,,
COC1CCC2(CC1)NC(=O)C(c1nc(-c3ccc(F)cc3)nn1C)=C2O (centres unmarked) [Example I-1-a2-1],100,100,,
Cn1nc(-c2ccc(Cl)cc2)nc1-c1c(O)n2n(c1=O)CCOCC2 [Example I-8-a3],,90,90,
Cn1nc(-c2ccc(F)cc2)nc1C1=C(O)C2(CCOCC2)NC1=O [Example I-1-a3-1],100,,,
CCn1nc(-c2ccc(F)cc2)nc1-c1c(O)n2n(c1=O)CCOCC2 [Example I-8-a5],,,90,
COC1CCC2(CC1)NC(=O)C(c1nc(-c3ccccc3)nn1C)=C2O (centres unmarked) [Example I-1-a2-5],,100,,
CON1CCC2(CC1)NC(=O)C(c1nc(-c3ccc(Cl)cc3)nn1C)=C2O [Example I-1-a10-3],,90,90,
Cn1nc(-c2ccc(Cl)cc2)nc1C1=C(O)C(C)(C)NC1=O [Example I-1-a1-3],100,,,efficacy (kill in %) [4]: 90%
Cn1nc(-c2ccc(Cl)cc2)nc1C1=C(O)C2(CCC(C(F)(F)F)CC2)NC1=O (centres unmarked) [Example I-1-a8-3],100,,,
